Results published in patent US20220281860A1, “COMPOUNDS AND METHODS OF TREATING RNA-MEDIATED DISEASES” (Arrakis Therapeutics, Inc., priority 2016, published 2022).

Experiments:
RNA3WJ_1.1.0_5IB_3FAM = assay: Thermal shift binding assay; details: 1 μM RNA, 8 μM compound
Description: (§1) Purpose: Test binding of compounds for RNA three way junction (for example, a construct of 38 nt). Thermal shift assay based on established fluorescence quenching assay utilizing FAM as fluorescence tag and Iowa Black as quencher. Tags were attached at the 3′ and 5′ end, respectively. Stable formation of 3WJ upon compound binding would lead to quenching of the FAM fluorescence due to close proximity of the Iowa Black tag. Thermal unfolding leads to increase of fluorescence emission. Assay readout: FAM (465-510 nm) Thermal Shift.
(§2) Assay sample buffer used: 10 mM CacoK pH 7.2, 30 mM NaCl. Buffer preparation in Dnase/Rnase Free distilled water (Gibco Life Technologies).
(§3) Tool compounds provided as dry powder are prepared as 50 mM stock solution in 100% d6-DMSO. Stock solutions of 50 mM concentration in d6-DMSO are stored at RT.
(§4) Sample plate: Roche, Light Cycler480 Multiwell Plate96, white, REF 04729692001. (Dilution plate: Greiner REF 781101, PS-Microplate, 384 well, clear). Thermal Shift device: Roche, Light Cycler480.
(§5) Daily fresh (10 ml): 1 ml 100 mM CacoK pH 7.2 and 0.3 ml 1 M NaCl filled up to 10 ml with Dnase/Rnase Free distilled water.
(§6) Dilute the RNA 1:10 (final 10 μM) in Assay Buffer.
(§7) Heat up the diluted RNA up to 90° C. for 5 min (sealed Eppendorf Tube).
(§8) Cool down the RNA probe slowly to RT.
(§9) Dilute the compounds to 800 μM in DMSO (Assay: 8 μM).
(§10) 78.4 μL Assay Buffer are pipetted into Greiner REF 781101, PS-Microplate, 384 (each well needed).
(§11) Add 0.8 μL of the RNA-Solution ([…]).
(§12) Add 0.8 μL Compound-Solution ([…]).
(§13) Final concentrations in the sample: 1 μM RNA, 8 μM compound, 1% DMSO
(§14) Pipet 20 μL Sample Solution into Roche, Light Cycler480 Multiwell Plate96, white, REF 04729692001.
(§15) When sample transfer is finished, seal the plate with a clear topseal (part of REF 04729692001).
(§16) Centrifuge the plate with a table-top device to spin down the samples.
(§17) Measure the 96 plate with the LightCycler480 (Channel: 480/510 nm; Temperature: 41-91° C.).
(§18) Analyse measurement-data with the MeltingCurveGenotyping Mode.
(§19) Settings: Acquisition mode: continuous; Ramp rate: 0.1 C.°/sec; Acquisition: 6/C.° Melt Curve Genotyping for All Samples
(§20) Melting curves analysis show melting temperature (Tm) of ˜51° C. Range of RNA concentrations was tested and assay window was determined (conc. range of 0.5-1 μM yields best results). The choice of buffer also affected the Tm. RNA constructs were tested under different buffer conditions (especially in presence of salt) in the thermal shift assay. […] CacoK with 30 mM salt at 1 μM RNA conc. was used to assess compound effects on 3WJ stability. […] These conditions were used for screening test compounds.

[1] = system: RNA3WJ_0.0.0_5IB_3FAM (3WJ_0.0.0_5IB_3FAM) RNA three way junction; assay: Thermal shift binding assay; details: RNA3WJ_0.0.0_5IB_3FAM; 1 μM RNA, 8 μM compound, 1% DMSO; 10 mM CacoK pH 7.2, 30 mM NaCl
Description: as §1, §2, §3, §4, §5, §6, §7, §8, §9, §10, §11, §12, §13, §14, §15, §16, §17, §18, §19, §20

RNA3WJ_2.0.0_5IB_3FAM = assay: Thermal shift binding assay; details: 1 μM RNA, 8 μM compound
Description: as §1, §2, §3, §4, §5, §6, §7, §8, §9, §10, §11, §12, §13, §14, §15, §16, §17, §18, §19, §20

RNA3WJ_2.1.0_5IB_3FAM = assay: Thermal shift binding assay; details: 1 μM RNA, 8 μM compound
Description: as §1, §2, §3, §4, §5, §6, §7, §8, §9, §10, §11, §12, §13, §14, §15, §16, §17, §18, §19, §20

RNA3WJ_1.1.1_5IB_3FAM = assay: Thermal shift binding assay; details: 1 μM RNA, 8 μM compound
Description: as §1, §2, §3, §4, §5, §6, §7, §8, §9, §10, §11, §12, §13, §14, §15, §16, §17, §18, §19, §20

[2] = system: RNA3WJ_1.0.0_5IB_3FAM (cis 3WJ with one unpaired nucleotide); assay: Fluorescence quenching binding assay; details: cis 3WJ RNA3WJ_1.0.0_5IB_3FAM; two concentration points; FIG. 109
Experimental: This assay will be used to test binding of compounds for RNA three way junction (such as a 38 nt construct). This is a fluorescence quenching assay utilizing FAM as fluorescence tag and Iowa Black as quencher. Tags are attached at the 3′ and 5′ end, respectively. Stable formation of MW upon compound binding would lead to quenching of the FAM fluorescence due to close proximity of the Iowa Black tag. Assay readout: FAM (485-520 nm) Fluorescence Intensity.
as §2, §3
Sample plate: Greiner cat #784076, black, 384 (Dilution plate: Greiner REF 781101, PS-Microplate, 384 well, clear). Fluorescence Intensity device: Envision 1040285
Daily fresh (10 ml): 1 ml 100 mM CacoK pH 7.2 and 0.3 ml 1 M NaCl filled up to 10 ml with Dnase/Rnase Free distilled water […]
Calibration of the expected fluorescence signal at various RNA concentrations in either CacoK or NaPO4 buffers was performed first. Experiments in buffers containing salt show distinct fluorescence quenching behavior. […]
The fluorescence quenching experiment was repeated for compounds Ark0000013 and Ark0000014 to measure binding with: […]

Structure (SMILES) | Melting temp [° C.] + cmpd (RNA3WJ_1.1.0_5IB_3FAM) | Temp. Shift [° C.] (RNA3WJ_1.1.0_5IB_3FAM) | Melting temp [° C.] + cmpd [1] | Temp. Shift [° C.] [1] | Melting temp [° C.] + cmpd (RNA3WJ_2.0.0_5IB_3FAM) | Temp. Shift [° C.] (RNA3WJ_2.0.0_5IB_3FAM) | Melting temp [° C.] + cmpd (RNA3WJ_2.1.0_5IB_3FAM) | Temp. Shift [° C.] (RNA3WJ_2.1.0_5IB_3FAM) | Melting temp [° C.] + cmpd (RNA3WJ_1.1.1_5IB_3FAM) | Temp. Shift [° C.] (RNA3WJ_1.1.1_5IB_3FAM) | Effect in fluorescence quenching assay [2]
CN(CCCN)CCCNC(=O)c1ccc2c(c1)C1c3cc(C(=O)NCCCN(C)CCCN)ccc3C2c2ccc(C(=O)NCCCN(C)CCCN)cc21 [Ark0000013, N^2,N^7,N^15-tris(3-((3-aminopropyl)(methyl)amino)propyl)-9,10-dihydro-9,10-[1,2]benzenoanthracene-2,7,15-tricarboxamide] | 85.5 °C | 22.2 °C | 84.1 °C | 24.2 °C | 84.3 °C | 22.1 °C | 45.7 °C | 3.8 °C | 82.9 °C | 20.7 °C | significant concentration dependent effect
NCCCCCCCNC(=O)c1ccc2c(c1)C1c3cc(C(=O)NCCCCCCCN)ccc3C2c2ccc(C(=O)NCCCCCCCN)cc21 [Ark0000014, N^2,N^7,N^15-tris(7-aminoheptyl)-9,10-dihydro-9,10-[1,2]benzenoanthracene-2,7,15-tricarboxamide] | 65.1 °C | 1.8 °C | 61.5 °C | 1.6 °C | 64.4 °C | 2.2 °C | 42.0 °C | 0.1 °C | 64.3 °C | 2.1 °C | smaller effect
